Measured values: paper PMC4619380, “Nicotinic Activity of Arecoline, the Psychoactive Element of "Betel Nuts", Suggests a Basis for Habitual Use and Anti-Inflammatory Activity” (PLoS ONE, 2015)
“Also recorded” adds a separate entry of the source. Read-outs that look alike come from different tables or passages of the source. Marks after values point to notes of the source that are not given here.

Legend:
[1] = molecular target: T1, human α7 nAChR (Homo sapiens, UniProt P36544); test: Two-electrode voltage clamp of Xenopus oocytes expressing α7 nAChR (co-injected with RIC-3); assay type: cell-based; details: for activation of α7 in the presence of PNU-120596: co-applied with 10 μM PNU-120596; for activation of α7 when applied alone (absence of PAM): no PNU-120596, compared to 60 μM ACh controls; for EC50: normalized to 60 μM ACh controls
T1 construct: host or cells: Xenopus laevis oocytes injected with cRNA
T1 sequence (P36544 23-502): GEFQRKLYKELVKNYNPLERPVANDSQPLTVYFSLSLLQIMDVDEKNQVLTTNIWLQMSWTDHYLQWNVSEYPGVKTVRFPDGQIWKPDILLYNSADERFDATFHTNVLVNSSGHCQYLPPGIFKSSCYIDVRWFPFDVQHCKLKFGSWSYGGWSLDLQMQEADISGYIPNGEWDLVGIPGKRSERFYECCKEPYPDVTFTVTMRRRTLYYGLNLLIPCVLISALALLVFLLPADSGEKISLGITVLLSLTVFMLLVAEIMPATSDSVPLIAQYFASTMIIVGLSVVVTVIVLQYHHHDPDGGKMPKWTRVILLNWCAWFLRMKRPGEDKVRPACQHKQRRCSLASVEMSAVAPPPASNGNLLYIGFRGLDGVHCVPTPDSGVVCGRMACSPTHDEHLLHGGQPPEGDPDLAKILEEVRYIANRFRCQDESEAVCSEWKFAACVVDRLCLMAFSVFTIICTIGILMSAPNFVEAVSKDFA
Experimental: (§1) Human nAChR clones and concatamers were obtained from Dr. J. Lindstrom (University of Pennsylvania, Philadelphia, PA). The human resistance-to-cholinesterase 3 (RIC-3) clone, obtained from Dr. M. Treinin (Hebrew University, Jerusalem, Israel), was co-injected with α7 to improve the level and speed of α7 receptor expression without affecting the pharmacological properties of the receptors. Subsequent to linearization and purification of the plasmid cDNAs, cRNAs were prepared using the mMessage mMachine in vitro RNA transfection kit (Ambion, Austin, TX).
Oocytes were surgically removed from mature Xenopus laevis frogs (Nasco, Ft. Atkinson, WI) and injected with appropriate nAChR subunit cRNAs as described previously. Frogs were maintained in the Animal Care Service facility of the University of Florida, and all procedures were approved by the University of Florida Institutional Animal Care and Use Committee. In brief, the frog was first anesthetized for 15–20 min in 1.5 L frog tank water containing 1 g of 3-aminobenzoate methanesulfonate buffered with sodium bicarbonate. The harvested oocytes were treated with 1.25 mg/ml collagenase (Worthington Biochemicals, Freehold, NJ) for 2 h at room temperature in calcium-free Barth’s solution (88 mM NaCl, 1 mM KCl, 2.38 mM NaHCO3, 0.82 mM MgSO4, 15 mM HEPES, and 12 mg/l tetracycline, pH 7.6) to remove the follicular layer. Stage V oocytes were subsequently isolated and injected with 50 nl of 5–20 ng nAChR subunit cRNA. Recordings were carried out 1–7 days after injection.
Experiments were conducted using OpusXpress 6000A (Molecular Devices, Union City, CA). Both the voltage and current electrodes were filled with 3 M KCl. Oocytes were voltage-clamped at -60 mV. The oocytes were bath-perfused with Ringer’s solution (115 mM NaCl, 2.5 mM KCl, 1.8 mM CaCl2, 10 mM HEPES, and 1 μM atropine, pH 7.2) at 2 ml/min for α7 receptors and at 4 ml/min for other subtypes. To evaluate the effects of experimental compounds compared to ACh-evoked responses of various nAChR subtypes expressed in oocytes, baseline conditions were defined by two initial applications of ACh made before test applications. The solutions were applied from a 96-well plate via disposable tips, and the test compounds were applied alone, co-applied with ACh, or co-applied with PNU-120596. For the concentration-response study, drug applications alternated between ACh controls and experimental compounds. Unless otherwise indicated, drug applications were 12 s in duration followed by a 181 s washout period for α7 receptors and 6 s with a 241 s washout for other subtypes. A typical recording for each oocyte constituted two initial control applications of ACh, an experimental compound application, and then a follow-up control application of ACh to determine the desensitization or rundown of the receptors. The control ACh concentrations were 60 μM for α7, 100 μM for α3β4, and 30 μM for α4β2. The responses of α4β2 and α3β4-expressing cells were measured as peak current amplitudes, and the α7 data were calculated as net charge, as previously described.
(§2) Data were collected at 50 Hz, filtered at 20 Hz, analyzed by Clampfit 9.2 (Molecular Devices) and Excel 2003 (Microsoft, Redmond, WA), and normalized to the averaged peak current or net-charge response of the two initial ACh controls for each oocyte. Data were expressed as means ± SEM from at least four oocytes for each experiment and plotted by Kaleidagraph 3.0.2 (Abelbeck Software, Reading, PA). Multi-cell averages were calculated for comparisons of complex responses. To permit better comparisons between experiments each single cell response was normalized to the average of the two initial controls obtained from that cell. Averages of the normalized data were calculated for each of the 10,500 points in each of the 210 s traces (acquired at 50 Hz), as well as the standard errors for those averages.

[2] = molecular target: T2, LS α4(3)β2(2) nAChR (Homo sapiens, UniProt P17787+P43681); details: cited from earlier work
T2 construct: host or cells: Xenopus laevis oocytes injected with cRNA
T2 sequence (P17787+P43681 fused): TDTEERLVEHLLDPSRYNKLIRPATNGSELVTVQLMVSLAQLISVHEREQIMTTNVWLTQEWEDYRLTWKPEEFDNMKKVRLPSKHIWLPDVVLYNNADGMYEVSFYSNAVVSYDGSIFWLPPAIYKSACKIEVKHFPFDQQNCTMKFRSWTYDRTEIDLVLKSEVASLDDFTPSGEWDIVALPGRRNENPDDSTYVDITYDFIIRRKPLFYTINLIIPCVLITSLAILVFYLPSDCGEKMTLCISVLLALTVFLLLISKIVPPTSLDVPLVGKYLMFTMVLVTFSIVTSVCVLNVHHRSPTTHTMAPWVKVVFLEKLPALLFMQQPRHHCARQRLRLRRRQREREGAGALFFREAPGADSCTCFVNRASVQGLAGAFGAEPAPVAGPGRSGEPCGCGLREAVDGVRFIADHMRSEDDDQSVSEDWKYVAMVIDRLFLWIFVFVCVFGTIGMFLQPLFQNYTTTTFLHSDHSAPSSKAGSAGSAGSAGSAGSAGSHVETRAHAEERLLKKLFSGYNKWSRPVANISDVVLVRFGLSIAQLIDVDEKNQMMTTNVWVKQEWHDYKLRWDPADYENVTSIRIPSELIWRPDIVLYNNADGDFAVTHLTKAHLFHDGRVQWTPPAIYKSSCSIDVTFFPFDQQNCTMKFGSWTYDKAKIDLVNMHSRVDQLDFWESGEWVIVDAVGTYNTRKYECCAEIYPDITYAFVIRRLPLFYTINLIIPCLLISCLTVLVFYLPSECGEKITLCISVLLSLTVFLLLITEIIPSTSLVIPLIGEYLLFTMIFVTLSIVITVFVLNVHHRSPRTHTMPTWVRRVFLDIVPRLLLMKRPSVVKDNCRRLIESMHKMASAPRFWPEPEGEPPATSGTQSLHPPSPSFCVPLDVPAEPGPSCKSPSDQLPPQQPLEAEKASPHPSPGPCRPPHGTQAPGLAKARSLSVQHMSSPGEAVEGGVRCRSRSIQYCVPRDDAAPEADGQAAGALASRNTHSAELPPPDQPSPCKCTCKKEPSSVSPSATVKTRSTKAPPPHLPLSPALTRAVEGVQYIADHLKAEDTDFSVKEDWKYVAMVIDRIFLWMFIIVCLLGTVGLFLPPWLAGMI
T2 sequence (P43681 27-627): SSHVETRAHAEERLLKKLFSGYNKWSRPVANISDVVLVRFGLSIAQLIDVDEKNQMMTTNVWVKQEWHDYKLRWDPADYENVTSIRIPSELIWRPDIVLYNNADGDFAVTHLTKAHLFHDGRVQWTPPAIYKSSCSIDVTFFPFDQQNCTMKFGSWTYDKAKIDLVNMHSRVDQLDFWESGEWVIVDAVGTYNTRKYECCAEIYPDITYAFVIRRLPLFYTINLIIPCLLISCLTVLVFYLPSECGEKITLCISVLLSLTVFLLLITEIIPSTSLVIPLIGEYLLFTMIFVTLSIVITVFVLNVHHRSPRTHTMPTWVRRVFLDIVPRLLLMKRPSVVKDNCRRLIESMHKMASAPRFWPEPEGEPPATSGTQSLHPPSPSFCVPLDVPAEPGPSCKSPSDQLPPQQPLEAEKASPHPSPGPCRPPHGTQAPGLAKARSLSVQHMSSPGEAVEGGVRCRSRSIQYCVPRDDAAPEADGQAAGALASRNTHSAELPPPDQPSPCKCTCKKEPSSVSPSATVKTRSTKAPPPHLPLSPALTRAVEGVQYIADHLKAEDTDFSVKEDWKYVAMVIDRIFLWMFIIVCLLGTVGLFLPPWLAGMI

[3] = molecular target: T3, HS α4(2)β2(3) nAChR (Homo sapiens, UniProt P17787+P43681); details: cited from earlier work
T3 construct: host or cells: Xenopus laevis oocytes injected with cRNA
T3 sequence (P17787+P43681 fused): as the sequence (P17787+P43681 fused) above
T3 sequence (P17787 26-502): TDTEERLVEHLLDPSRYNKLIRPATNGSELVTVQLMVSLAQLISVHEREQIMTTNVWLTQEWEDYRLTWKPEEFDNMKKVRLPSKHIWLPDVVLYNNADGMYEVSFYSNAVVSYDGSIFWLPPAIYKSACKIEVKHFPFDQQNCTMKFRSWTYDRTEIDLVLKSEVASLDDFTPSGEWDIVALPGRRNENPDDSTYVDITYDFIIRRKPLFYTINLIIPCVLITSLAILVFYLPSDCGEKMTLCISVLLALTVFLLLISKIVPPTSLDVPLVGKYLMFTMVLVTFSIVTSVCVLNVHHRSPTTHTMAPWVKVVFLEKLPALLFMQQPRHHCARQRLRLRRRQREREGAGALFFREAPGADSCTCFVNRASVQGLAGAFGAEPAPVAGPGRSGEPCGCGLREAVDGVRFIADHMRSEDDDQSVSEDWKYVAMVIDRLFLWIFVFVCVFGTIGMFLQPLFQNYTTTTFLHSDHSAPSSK

[4] = molecular target: T4, α6β2β3α4β2 concatamer nAChR (Homo sapiens, UniProt P17787+P43681+Q15825); design: method as in PMID 20923852; details: cited from earlier work
T4 sequence (Q15825 26-494): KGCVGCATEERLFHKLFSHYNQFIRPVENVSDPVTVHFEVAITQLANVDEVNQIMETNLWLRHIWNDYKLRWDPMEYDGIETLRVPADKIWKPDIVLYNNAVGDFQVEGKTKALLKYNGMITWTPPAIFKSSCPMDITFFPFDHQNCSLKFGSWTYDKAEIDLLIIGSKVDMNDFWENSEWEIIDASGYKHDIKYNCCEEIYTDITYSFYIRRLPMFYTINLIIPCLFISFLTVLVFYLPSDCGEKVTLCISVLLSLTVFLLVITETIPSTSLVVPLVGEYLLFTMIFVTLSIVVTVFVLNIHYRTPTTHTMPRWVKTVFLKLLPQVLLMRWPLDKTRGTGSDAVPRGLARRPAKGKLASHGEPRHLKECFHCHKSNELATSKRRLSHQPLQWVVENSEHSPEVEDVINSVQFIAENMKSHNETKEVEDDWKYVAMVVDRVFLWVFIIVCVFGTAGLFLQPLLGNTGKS
T4 sequence (P17787 26-502): as the sequence (P17787 26-502) above
T4 sequence (P43681 27-627): as the sequence (P43681 27-627) above
T4 sequence (Q05901 22-458 partner): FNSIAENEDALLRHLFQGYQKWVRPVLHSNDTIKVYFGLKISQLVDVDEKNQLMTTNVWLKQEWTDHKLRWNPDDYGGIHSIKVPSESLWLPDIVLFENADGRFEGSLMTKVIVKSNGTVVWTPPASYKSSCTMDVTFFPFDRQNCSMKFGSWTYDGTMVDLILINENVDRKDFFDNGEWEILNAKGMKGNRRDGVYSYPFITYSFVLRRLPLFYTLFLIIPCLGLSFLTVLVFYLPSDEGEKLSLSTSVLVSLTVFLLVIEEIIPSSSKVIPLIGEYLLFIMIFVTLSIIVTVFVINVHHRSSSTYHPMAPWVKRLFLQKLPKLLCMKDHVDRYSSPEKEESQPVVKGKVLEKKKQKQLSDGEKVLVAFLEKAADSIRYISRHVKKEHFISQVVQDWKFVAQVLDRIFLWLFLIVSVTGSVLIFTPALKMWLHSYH

[5] = design: method as in PMID 20412403; details: 90% of betel chewers, prior to chewing; cited from earlier work
[6] = molecular target: T4, α6β2β3α4β2 concatamer nAChR; test: Two-electrode voltage clamp of Xenopus oocytes expressing the α6-containing concatamer; assay type: cell-based
Experimental: as §1
(§3) Oocytes were surgically removed from mature Xenopus laevis frogs (Nasco, Ft. Atkinson, WI) and injected with appropriate nAChR subunit cRNAs as described previously. Frogs were maintained in the Animal Care Service facility of the University of Florida, and all procedures were approved by the University of Florida Institutional Animal Care and Use Committee. In brief, the frog was first anesthetized for 15–20 min in 1.5 L frog tank water containing 1 g of 3-aminobenzoate methanesulfonate buffered with sodium bicarbonate. […]
(§4) Experiments were conducted using OpusXpress 6000A (Molecular Devices, Union City, CA). […] The responses of α4β2 and α3β4-expressing cells were measured as peak current amplitudes, and the α7 data were calculated as net charge, as previously described.
as §2, with “To permit better comparisons between experiments each single cell response was normalized to the average of the two initial controls obtained from that cell.” left out

[7] = tested on: α4β2 nAChR (mixed populations formed from monomers); test: Two-electrode voltage clamp of Xenopus oocytes expressing α4β2 nAChR formed from monomers; assay type: cell-based, human; details: 100 μM arecoline; α4 and β2 monomers
Experimental: as §1, with “TX). […]” for “TX).”
as §4
(§5) Data were collected at 50 Hz, filtered at 20 Hz, analyzed by Clampfit 9.2 (Molecular Devices) and Excel 2003 (Microsoft, Redmond, WA), and normalized to the averaged peak current or net-charge response of the two initial ACh controls for each oocyte. Data were expressed as means ± SEM from at least four oocytes for each experiment and plotted by Kaleidagraph 3.0.2 (Abelbeck Software, Reading, PA). Multi-cell averages were calculated for comparisons of complex responses. […]

[8] = molecular target: T2, LS α4(3)β2(2) nAChR; test: Two-electrode voltage clamp of Xenopus oocytes expressing low sensitivity α4β2 nAChR (β2-α4 concatamer plus α4 monomer); assay type: cell-based
Experimental: as §1, with “TX). […]” for “TX).”
as §4, §5

[9] = molecular target: T3, HS α4(2)β2(3) nAChR; test: Two-electrode voltage clamp of Xenopus oocytes expressing high sensitivity α4β2 nAChR (β2-α4 concatamer plus β2 monomer); assay type: cell-based
Experimental: as §1, §3, §4
as §2, with “To permit better comparisons between experiments each single cell response was normalized to the average of the two initial controls obtained from that cell.” left out, “averages. […]” for “averages.”

[10] = 100 μM arecoline co-applied with 10 μM PNU-120596, 60 μM ACh controls, n = 7
[11] = co-applied with 30 μM PNU-120596, relative to 60 μM ACh controls

SMILES: CC(=O)OC(C)C[N+](C)(C)C (stereo not shown) [methacholine, reference compound]
- activation of α7 in the presence of PNU-120596 [1]: not as active as arecoline
- activation of α7 when applied alone (absence of PAM) [1]: silent agonist

SMILES: O=c1cccc2n1C[C@@H]1CNC[C@H]2C1 [cytisine]
- Imax relative to ACh [2]: 0.10 ± 0.02 ^a
- Imax relative to ACh [3]: ≤ 0.05 ^a
- Imax relative to ACh [4]: 0.11 ± 0.03 ^c

SMILES: C[N+](C)(C)CCOC(N)=O [carbachol, reference compound]
- activation of α7 in the presence of PNU-120596 [1]: stimulated α7 receptors under both conditions
- activation of α7 when applied alone (absence of PAM) [1]: stimulated α7 receptors under both conditions

SMILES: O=C1CCCN1CC#CCN1CCCC1 [oxotremorine, reference compound]
- activation of α7 in the presence of PNU-120596 [1]: relatively little additional activation
- activation of α7 when applied alone (absence of PAM) [1]: small but significant activation

SMILES: C[C@@H]1O[C@H](C[N+](C)(C)C)C[C@H]1O [muscarine, reference compound]
- activation of α7 in the presence of PNU-120596 [1]: failed to activate the receptors under either condition
- activation of α7 when applied alone (absence of PAM) [1]: failed to activate the receptors under either condition

SMILES: COC(=O)C1=CCCN(C)C1 [arecoline]
- residual salivary level of arecoline [5]: at least 400 nM
- response to arecoline (activation) ([6]; 100 μM arecoline): small but significant activity; also recorded: substantially larger and well above the threshold of detection
- EC50 ([6]; α6-containing receptor, responses relative to ACh maximum): 21 ± 4 µM
- Imax relative to ACh ([6]; α6β2β3α4β2): 0.056 ± 0.003
- effect on subsequent ACh-evoked responses ([1]; 60 μM ACh applied after the test application and wash): largely unaffected
- response relative to ACh maximum ([1]; 100 μM arecoline applied alone, extrapolated from ACh controls and earlier ACh concentration-response studies): less than 1%
- net charge of response relative to ACh controls [1, 10]: 37 ± 10 times
- peak amplitude of response relative to ACh controls [1, 10]: 9.6 ± 3.4 times
- EC50 ([1]; co-applied with 30 μM PNU-120596, read-out: EC50, net charge): 93 ± 2 µM
- EC50 ([1]; co-applied with 30 μM PNU-120596, read-out: EC50, peak currents): 60 ± 7 µM
- Imax relative to ACh controls, net charge [1, 11]: 49 ± 1
- Imax relative to ACh controls, peak currents [1, 11]: 15 ± 1
- activation of α7 when applied alone (absence of PAM) [1]: did not produce significant activation
- IC50 ([1]; simple co-application with 60 μM ACh, no PAM, read-out: IC50 for inhibiting 60 μM ACh-evoked responses): > 1000 µM
- response to arecoline (activation) [7]: small but significant activity; also recorded: substantially larger and well above the threshold of detection
- EC50 ([8]; LS α4β2, responses relative to ACh maximum): 75 ± 7 µM
- Imax relative to ACh ([8]; α4(3)β2(2)): 0.036 ± 0.003
- EC50 ([9]; HS α4β2, responses relative to ACh maximum): 14 ± 3 µM
- mecamylamine-sensitive steady-state activation relative to ACh maximum ([9]; prolonged bath application of 3 μM arecoline, revealed with 100 μM mecamylamine, seven cells): ~1%
- Imax relative to ACh ([9]; α4(2)β2(3)): 0.054 ± 0.004

SMILES: c1cnc2cc3c(cc2n1)[C@@H]1CNC[C@H]3C1 [varenicline]
- Imax relative to ACh [2]: 0.08 ^b
- Imax relative to ACh [3]: 0.13 ^b
- Imax relative to ACh [4]: 0.18 ± 0.11 ^c
